Experimental findings from patent US11453897B2, “Method for producing aminobenzoic acid or an aminobenzoic acid derivative product” (Covestro Intellectual Property GmbH & Co. KG, priority 2018, dated 2022) are described below.

A short description of this data set: Dissolution of calcium ortho-aminobenzoate by salt exchange with ammonium ions (ammonium carbonate stock solution). The class given is physicochemical. As to the method:
48.0 g of anhydrous calcium chloride was added to 1.00 L of fermentation broth. The pH was adjusted to a value of 7.0 by adding hydrochloric acid. 100 g of ortho-aminobenzoic acid (dissolved in sodium hydroxide solution at pH 7.0) was then added to this mixture by adding 200 mL of oAB STOCK SOLUTION. There was briefly precipitation of calcium ortho-aminobenzoate. The concentration of dissolved ortho-aminobenzoic acid measured in the aqueous phase was 18.0 g/L. The solids fraction of the mixture was filtered off and dried at 80° C. for 48 h. In this way, 110 g of dried solid material was obtained. 20.0 g of that was added to 50.0 mL of AMMONIUM STOCK SOLUTION 1, the mixture was stirred and the concentration of dissolved ortho-aminobenzoic acid was determined. The latter was 146 g/L.
48.0 g of anhydrous calcium chloride was added to 800 mL of water. The pH was adjusted to a value of 7.0 by adding hydrochloric acid. […] The concentration of dissolved ortho-aminobenzoic acid measured in the aqueous phase was 18.0 g/L. The solids fraction of the mixture was filtered off and dried at 80° C. for 48 h. […] 20.0 g of that was added to 25.0 mL of AMMONIUM STOCK SOLUTION 2, the mixture was stirred and the concentration of dissolved ortho-aminobenzoic acid was determined.

In the case of calcium ortho-aminobenzoate, the “concentration of dissolved ortho-aminobenzoic acid after salt exchange” value is, setting by setting: (20.0 g dried solid in 25.0 mL ammonium carbonate 210 g/L (Example 2)) 175000 µg/mL; (20.0 g dried solid in 50.0 mL ammonium carbonate 105 g/L (Example 1)) 146000 µg/mL.
